Test results as given in patent US10638756B2, “Molecules having pesticidal utility, and intermediates, compositions, and processes, related thereto” (Dow AgroSciences LLC, priority 2017, dated 2020).

What was measured:
[1] = system: Beet Armyworm (Spodoptera exigua); assay: Bioassay on Beet Armyworm (BAW), 128-well diet tray assay; assay type: in vivo; conditions: for mortality at 50 µg/cm2: Spodoptera exigua, 168 h, 50 μg/cm^2 on artificial diet, second instar larvae, five to seven days, read-out: BAW % Control (or Mortality) rating
Description: (§1) Certain molecules disclosed in this document were tested against BAW and CL using procedures described in the following examples. In the reporting of the results, the “BAW & CL Rating Table” was used (See Table Section).
Bioassays on BAW were conducted using a 128-well diet tray assay. […] Trays were covered with a clear self-adhesive cover, vented to allow gas exchange, and held at 25° C., 14:10 light-dark for five to seven days. Percent mortality was recorded for the larvae in each well; activity in the eight wells was then averaged. The results are indicated in the table entitled “Table ABC: Biological Results” (See Table Section).

[2] = system: Cabbage Looper (Trichoplusia ni); assay: Bioassay on Cabbage Looper (CL), 128-well diet tray assay; assay type: in vivo; conditions: 168 h, 50 μg/cm^2 on artificial diet, second instar larvae, five to seven days, read-out: CL % Control (or Mortality) rating
Description: as §1
Bioassays on CL were conducted using a 128-well diet tray assay. One to five second instar CL larvae were placed in each well (3 mL) of the diet tray that had been previously filled with 1 mL of artificial diet to which 50 μg/cm^2 of the test molecule (dissolved in 50 μL of 90:10 acetone-water mixture) had been applied (to each of eight wells) and then allowed to dry. Trays were covered with a clear self-adhesive cover, vented to allow gas exchange, and held at 25° C., 14:10 light-dark for five to seven days. Percent mortality was recorded for the larvae in each well; activity in the eight wells was then averaged. The results are indicated in the table entitled “Table ABC: Biological Results” (See Table Section).

| Compound | mortality at 50 µg/cm2 [1] [%] | mortality at 50 µg/cm2 [2] [%] | BAW (Table CD-1) ([1]; 0.05 μg/cm^2) | BAW (Table CD-1) ([1]; 5.0 μg/cm^2) | BAW (Table CD-1) ([1]; 50 μg/cm^2) |
| --- | --- | --- | --- | --- | --- |
| Cc1nc(C)c(C)c(NNC(=O)c2ccc(/C(F)=C/C(c3cc(Cl)c(Cl)c(Cl)c3)C(F)(F)F)cc2C(F)(F)F)n1 (stereo not shown) [F75, (Z)-4-(1,4,4,4-Tetrafluoro-3-(3,4,5-trichlorophenyl)but-1-en-1-yl)-2-(trifluoromethyl)-N′-(2,5,6-trimethylpyrimidin-4-yl)benzohydrazide] | 50 to 100 | 50 to 100 | – | – | – |
| Cc1cc(/C(F)=C/C(c2cc(Cl)c(Cl)c(Cl)c2)C(F)(F)F)ccc1C(=O)NN(C)c1ncccn1 (stereo not shown) [F55, (Z)—N′,2-Dimethyl-N′-(pyrimidin-2-yl)-4-(1,4,4,4-tetrafluoro-3-(3,4,5-trichlorophenyl)but-1-en-1-yl)benzohydrazide] | 50 to 100 | 50 to 100 | – | – | – |
| O=C(NNc1cccnn1)c1ccc(/C(F)=C/C(c2cc(Cl)c(Cl)c(Cl)c2)C(F)(F)F)cc1C(F)(F)F (stereo not shown) [F86] | 50 to 100 | 50 to 100 | – | – | – |
| Cc1cc(C)nc(NNC(=O)c2ccc(/C(F)=C/C(c3cc(Cl)c(Cl)c(Cl)c3)C(F)(F)F)cc2C(F)(F)F)n1 (stereo not shown) [F85, (Z)—N′-(4,6-Dimethylpyrimidin-2-yl)-4-(1,4,4,4-tetrafluoro-3-(3,4,5-trichlorophenyl)but-1-en-1-yl)-2-(trifluoromethyl)benzohydrazide] | 50 to 100 | 50 to 100 | – | – | – |
| O=C(NNc1ccncn1)c1ccc(/C(F)=C/C(c2cc(Cl)c(Cl)c(Cl)c2)C(F)(F)F)cc1C(F)(F)F (stereo not shown) [F19, (Z)—N′-(Pyrimidin-4-yl)-4-(1,4,4,4-tetrafluoro-3-(3,4,5-trichlorophenyl)but-1-en-1-yl)-2-(trifluoromethyl)benzohydrazide] | 50 to 100 | 50 to 100 | – | – | – |
| O=C(NNc1ccc(F)cc1F)c1ccc(/C(F)=C/C(c2cc(Cl)c(Cl)c(Cl)c2)C(F)(F)F)cc1C(F)(F)F (stereo not shown) [F26, (Z)—N′-(2,4-Difluorophenyl)-4-(1,4,4,4-tetrafluoro-3-(3,4,5-trichlorophenyl)but-1-en-1-yl)-2-(trifluoromethyl)benzohydrazide] | 50 to 100 | 50 to 100 | – | – | – |
| CN(NC(=O)c1ccc(/C(F)=C/C(c2cc(Cl)cc(Cl)c2)C(F)(F)F)cc1C(F)(F)F)c1ncccn1 (stereo not shown) [F151, (Z)-4-(3-(3,5-Dichlorophenyl)-1,4,4,4-tetrafluorobut-1-en-1-yl)-N′-methyl-N′-(pyrimidin-2-yl)-2-(trifluoromethyl)benzohydrazide] | 50 to 100 | 50 to 100 | – | – | – |
| CCc1cnc(NNC(=O)c2ccc(/C(F)=C/C(c3cc(Cl)c(Cl)c(Cl)c3)C(F)(F)F)cc2C(F)(F)F)nc1 (stereo not shown) [F84, (Z)—N′-(5-Ethylpyrimidin-2-yl)-4-(1,4,4,4-tetrafluoro-3-(3,4,5-trichlorophenyl)but-1-en-1-yl)-2-(trifluoromethyl)benzohydrazide] | 50 to 100 | 50 to 100 | – | – | – |
| O=C(NNc1ncccn1)c1ccc(/C(F)=C/C(c2cc(Br)c(F)c(Br)c2)C(F)(F)F)cc1C(F)(F)F (stereo not shown) [F163, (Z)-4-(3-(3,5-Dibromo-4-fluorophenyl)-1,4,4,4-tetrafluorobut-1-en-1-yl)-N′-(pyrimidin-2-yl)-2-(trifluoromethyl)benzohydrazide] | 50 to 100 | 50 to 100 | – | – | – |
| O=C(NNc1ncccn1)c1ccc(/C(F)=C/C(c2cc(Cl)c(Cl)c(Br)c2)C(F)(F)F)cc1C(F)(F)F (stereo not shown) [F96, (Z)-4-(3-(3-Bromo-4,5-dichlorophenyl)-1,4,4,4-tetrafluorobut-1-en-1-yl)-N′-(pyrimidin-2-yl)-2-(trifluoromethyl)benzohydrazide] | 50 to 100 | 50 to 100 | – | – | – |
| CN(NC(=O)c1ccc(/C(F)=C/[C@@H](c2cc(Cl)c(Cl)c(Cl)c2)C(F)(F)F)cc1C(F)(F)F)c1ncccn1 (single isomer, unassigned) [F17] | 50 to 100 | 50 to 100 | – | – | – |
| N#CCN(C(=O)c1ccc(/C(F)=C/C(c2cc(Cl)c(Cl)c(Cl)c2)C(F)(F)F)cc1C(F)(F)F)N(CC#N)c1ncccn1 (stereo not shown) [F187, (Z)—N,N′-bis(cyanomethyl)-N′-(pyrimidin-2-yl)-4-(1,4,4,4-tetrafluoro-3-(3,4,5-trichlorophenyl)but-1-en-1-yl)-2-(trifluoromethyl)benzohydrazide] | 50 to 100 | 50 to 100 | – | – | – |
| O=C(Nn1ccnn1)c1ccc(/C(F)=C/C(c2cc(Cl)c(Cl)c(Cl)c2)C(F)(F)F)cc1C(F)(F)F (stereo not shown) [F62, (Z)-4-(1,4,4,4-Tetrafluoro-3-(3,4,5-trichlorophenyl)but-1-en-1-yl)-N-(1H-1,2,3-triazol-1-yl)-2-(trifluoromethyl)benzamide] | 50 to 100 | 50 to 100 | – | – | – |
| O=C(NNc1ncccc1[N+](=O)[O-])c1ccc(/C(F)=C/C(c2cc(Cl)c(Cl)c(Cl)c2)C(F)(F)F)cc1C(F)(F)F (stereo not shown) [F132, (Z)—N′-(3-Nitropyridin-2-yl)-4-(1,4,4,4-tetrafluoro-3-(3,4,5-trichlorophenyl)but-1-en-1-yl)-2-(trifluoromethyl)benzohydrazide] | 50 to 100 | 50 to 100 | – | – | – |
| O=C(N/N=C/c1ccccc1)c1ccc(/C(F)=C/C(c2cc(Cl)c(Cl)c(Cl)c2)C(F)(F)F)cc1C(F)(F)F (stereo not shown) [F38, N′-((E)-benzylidene)-4-((Z)-1,4,4,4-tetrafluoro-3-(3,4,5-trichlorophenyl)but-1-en-1-yl)-2-(trifluoromethyl)benzohydrazide] | 50 to 100 | 50 to 100 | – | – | – |
| O=C(NNC1CCC(F)(F)CC1)c1ccc(/C(F)=C/C(c2cc(Cl)c(Cl)c(Cl)c2)C(F)(F)F)cc1C(F)(F)F (stereo not shown) [F146, (Z)—N′-(4,4-Difluorocyclohexyl)-4-(1,4,4,4-tetrafluoro-3-(3,4,5-trichlorophenyl)but-1-en-1-yl)-2-(trifluoromethyl)benzohydrazide] | 50 to 100 | 50 to 100 | – | – | – |
| CN(NC(=O)c1ccc(/C(F)=C/C(c2cc(Cl)cc(OC(F)(F)F)c2)C(F)(F)F)cc1C(F)(F)F)c1ccccn1 (stereo not shown) [F61, (Z)-4-(3-(3-Chloro-5-(trifluoromethoxy)phenyl)-1,4,4,4-tetrafluorobut-1-en-1-yl)-N′-methyl-N′-(pyridin-2-yl)-2-(trifluoromethyl)benzohydrazide] | 50 to 100 | 50 to 100 | – | – | – |
| O=C(NNc1ccncc1)c1ccc(/C(F)=C/C(c2cc(Cl)c(Cl)c(Cl)c2)C(F)(F)F)cc1C(F)(F)F (stereo not shown) [F57, (Z)—N′-(Pyridin-4-yl)-4-(1,4,4,4-tetrafluoro-3-(3,4,5-trichlorophenyl)but-1-en-1-yl)-2-(trifluoromethyl)benzohydrazide] | 50 to 100 | 50 to 100 | – | – | – |
| O=C(NNc1ncccn1)c1ccc(/C(F)=C/C(c2cc(Cl)c(Cl)c(C3CC3)c2)C(F)(F)F)cc1C(F)(F)F (stereo not shown) [F191, (Z)-4-(3-(3,4-Dichloro-5-cyclopropylphenyl)-1,4,4,4-tetrafluorobut-1-en-1-yl)-N′-(pyrimidin-2-yl)-2-(trifluoromethyl)benzohydrazide] | 50 to 100 | 50 to 100 | – | – | – |
| NN(C(=O)c1ccc(/C(F)=C/C(c2cc(Cl)c(Cl)c(Cl)c2)C(F)(F)F)cc1C(F)(F)F)C1CC1 (stereo not shown) [F112, (Z)—N-Cyclopropyl-4-(1,4,4,4-tetrafluoro-3-(3,4,5-trichlorophenyl)but-1-en-1-yl)-2-(trifluoromethyl)benzohydrazide] | 50 to 100 | 50 to 100 | – | – | – |
| NN(CC(=O)NCC(F)(F)F)C(=O)c1ccc(/C(F)=C/C(c2cc(Cl)c(Cl)c(Cl)c2)C(F)(F)F)cc1C(F)(F)F (stereo not shown) [F149, (Z)-2-(1-(4-(1,4,4,4-tetrafluoro-3-(3,4,5-trichlorophenyl)but-1-en-1-yl)-2-(trifluoromethyl)benzoyl)hydrazinyl)-N-(2,2,2-trifluoroethyl)acetamide] | 50 to 100 | 50 to 100 | – | – | – |
| O=C(NNc1ncccn1)c1ccc(/C(F)=C/C(c2cc(Cl)c(Cl)c(C(F)F)c2)C(F)(F)F)cc1C(F)(F)F (stereo not shown) [F186, (Z)-4-(3-(3,4-Dichloro-5-(difluoromethyl)phenyl)-1,4,4,4-tetrafluorobut-1-en-1-yl)-N′-(pyrimidin-2-yl)-2-(trifluoromethyl)benzohydrazide] | 50 to 100 | 50 to 100 | – | – | – |
| C#CCN(NC(=O)c1ccc(/C(F)=C/C(c2cc(Cl)c(Cl)c(Cl)c2)C(F)(F)F)cc1C(F)(F)F)c1ncccn1 (stereo not shown) [F150, (Z)—N′-(Prop-2-yn-1-yl)-N′-(pyrimidin-2-yl)-4-(1,4,4,4-tetrafluoro-3-(3,4,5-trichlorophenyl)but-1-en-1-yl)-2-(trifluoromethyl)benzohydrazide] | 50 to 100 | 50 to 100 | – | – | – |
| O=C(NNc1ncccn1)c1ccc(/C(F)=C/C(c2cc(Cl)c(Cl)c(Cl)c2)C(F)(F)F)cc1 (stereo not shown) [1A, (Z)—N′-(Pyrimidin-2-yl)-4-(1,4,4,4-tetrafluoro-3-(3,4,5-trichlorophenyl)but-1-en-1-yl)benzohydrazide] | – | – | 0 | 25 | 100 |
